The text below walks through data of patent US20080280860A1, “Use of Vitamin D Compounds to Treat Endometriosis” (BioXell S.p.A., priority 2005, published 2008).

The test system of the assay is stromal cells. In words: Real Time PCR for gene expression quantification in cultured cells. The class given is cell-based. The settings on record: 1 uM and 0.1 uM versus untreated. As to the method: Tissue was gently minced into small pieces (1 to 2 mm^3) and incubated at 37° C. for 1 h with 0.1% type A collagenase. At the end of the incubation, single stromal cells were separated from large clumps of epithelium by a 10 min. period of differential sedimentation at unity gravity. The top 8 ml of medium, containing predominantly stromal cells, were then slowly removed and the cells were collected by centrifugation. The stromal-enriched fraction was washed twice in culture medium and allowed to adhere selectively to tissue culture dishes for 15 min.
Thereafter, nonattached epithelial cells still present were removed and a purified stromal preparation was obtained on the surface of the culture dishes.
Cells were incubated at 37° C. in 3% FBS DMEM (without Compound A, with Compound A at 1 uM concentration or with Compound A at 0.1 uM concentration) or 10% FBS DMEM (without Compound A, with Compound A at 1 uM concentration or with Compound A at 0.1 uM concentration). After 4 or 8 hours of incubation cells were trypsinized and collected as a cell pellet.
For total RNA extraction it was used the RNeasy Mini Kit QIAGEN (cat. no. 74106) briefly described below.
Cells were distrupted by addition of Buffer RLT and the lysate was loaded onto a QlAshredder spin column (QIAGEN cat. no. 79656) placed in a 2 ml collection tube and centrifuged for 2 min at maximum speed. A volume of 70% ethanol was added to the homogenized lysate. The sample was loaded on an RNeasy mini column placed in a 2 ml collection tube and centrifuged for 15 sec at >10000 rpm. The RNA bound to the column was digested with a DNase treatment. The column was washed with Buffer RW1 and centrifuged for 15 sec at >10000 rpm. The sample was incubated with DNase I mix (RNase-Free Dnase Set QIAGEN cat. no. 79254) at room temperature for 15 min. […] RNA concentration was evaluated by NanoDrop Spectrophotometer […]
Real Time PCR was performed by using ABI PRISM 7000 Sequence Detection System (Applied Biosystems). […] The genes analysed included Vitamin D Receptor (VDR), Cytochrome P450 (CYP24), Vascular Endothelial Growth Factor (VEGF), Estrogen Receptor alpha (ERα), Estrogen Receptor beta (ERβ), Progesterone Receptor (PR), Aromatase (CYP19), Cyclooxygenase type 2 (COX-2), Interleukin-8 (IL-8), Tumor Necrosis Factor alpha (TNF α), Caspase-3 (CASP3), Caspase-6 (CASP6), Ki-67 Nuclear Antigen (Ki-67).
Samples were incubated 2 min at 50° C., 10 min at 95° C. and amplified for 40 cycles at 95° C. for 15 sec (denaturation) and at 60° C. for 1 min (annealing/extension). The amount of gene expression was normalized to rRNA 18S gene expression and the comparative CT methods (User Bulletin #2 ABI PRISM 7000 Sequence Detection System) was used for relative quantitation.

Take `C=C1/C(=C\C=C2/CCC[C@]3(C)C([C@@H](C)C/C=C/C(O)(CC)CC)=CC[C@@H]23)C[C@@H](O)C[C@@H]1F` [Compound A, 1-alpha-fluoro-25-hydroxy-16,23E-diene-26,27-bishomo-20-epi-cholecalciferol]: the VDR expression result (FIG. 3A) is “Little or no change”. Besides, the VEGF expression entry (FIG. 3B) is listed as “Little or no change”. Also, the Cyp24 expression entry (FIG. 3C) was “marked upregulation”. In addition, where the note is “FIG. 3D”, the Cyp19 expression entry is listed as “Little or no change”.
